Test [1] addresses T1, acetylcholinesterase (AChE) (Homo sapiens, UniProt P22303).
T1 construct: purchased bioassay systems, USA IACE-100
Briefly: biochemical. The settings on record: for IC50: mean ± SD, n = 3, each in triplicate. As to the method:
(§1) The in vitro AChE and BuChE inhibitory effects and selectivity of nine TCM compounds were evaluated using the QuantiChrom^TM AChE inhibitor screening kit (IACE-100, bioassay systems, USA) for AChE inhibition and the BuChE activity kit (catalog # MBS846801, MyBiosource, CA, USA) for BuChE inhibition. […] The QuantiChrom^TM kit was used to assess the activity of AChE and BuChE by recording enzymatic activity at different concentrations of the test compounds and comparing it to activity without inhibitors, followed by plotting dose-response curves. The experimental data were fitted by nonlinear regression analysis to yield IC50 values. The selectivity of the compounds for AChE relative to BuChE was determined by calculating the Selectivity Index (SI) using the formula BuChE IC50 values are divided by AChE IC50 values to obtain SI.

Test [2] has as its target T2, butyrylcholinesterase (BuChE) (Homo sapiens, UniProt P06276).
T2 construct: purchased MyBiosource, CA, and USA MBS846801
Briefly: biochemical. As for the experimental part: as §1

Test [3] has as its system lead acetate-induced AD (LA-AD) rats. Briefly: Glutathione (GSH) content in brain tissue of LA-AD rats. It counts as in vivo, rat. Conditions: 1 mg/kg IP for 15 days, compared to the LA-AD group.
Procedure: Fifty male Wistar rats (n = 50) were obtained from a certified animal facility, Shenzhen Bay Laboratory (SZBL) Laboratory Animal Platform, China. The rats were acclimatized to the laboratory environment for one week prior to the experiment. During this period, they were kept in standard polypropylene cages for rodents under controlled conditions, with a room temperature of 22°C, relative humidity of 50%, and a 12-hour light-dark cycle, with lights on from 06:00 to 18:00. […] Routine monitoring of housing conditions was conducted to ensure compliance with ethical standards. To establish an AD model, the rats underwent intraperitoneal (IP) administration with lead acetate-induced AD (LA-AD, 50 mg/kg) for 15 days to mimic the neurodegenerative features of AD.
A 12-hour fasting period was imposed on the rats immediately after the final dose of treatment to minimize the effect of recent food intake on blood parameters. […] Following 28 days of exposure, the rats were euthanized by cervical decapitation, and their brains were removed to minimize tissue damage. The brains were dissected into specific regions, including the cerebellum and cerebral cortex, for deeper analysis. […]
Glutathione (GSH) levels in cerebral tissue were quantified by extracting proteins from the homogenate. […]
The target of test [4] is T3, butyrylcholinesterase (BuChE) (Rattus norvegicus, UniProt Q9JKC1).
T3 construct: The tissues were then homogenized, processed for biochemical analysis; from tissue; host or cells: brain of male Wistar rats (cerebellum, cerebral cortex, hippocampus homogenates)
T3 sequence (Q9JKC1 24-597): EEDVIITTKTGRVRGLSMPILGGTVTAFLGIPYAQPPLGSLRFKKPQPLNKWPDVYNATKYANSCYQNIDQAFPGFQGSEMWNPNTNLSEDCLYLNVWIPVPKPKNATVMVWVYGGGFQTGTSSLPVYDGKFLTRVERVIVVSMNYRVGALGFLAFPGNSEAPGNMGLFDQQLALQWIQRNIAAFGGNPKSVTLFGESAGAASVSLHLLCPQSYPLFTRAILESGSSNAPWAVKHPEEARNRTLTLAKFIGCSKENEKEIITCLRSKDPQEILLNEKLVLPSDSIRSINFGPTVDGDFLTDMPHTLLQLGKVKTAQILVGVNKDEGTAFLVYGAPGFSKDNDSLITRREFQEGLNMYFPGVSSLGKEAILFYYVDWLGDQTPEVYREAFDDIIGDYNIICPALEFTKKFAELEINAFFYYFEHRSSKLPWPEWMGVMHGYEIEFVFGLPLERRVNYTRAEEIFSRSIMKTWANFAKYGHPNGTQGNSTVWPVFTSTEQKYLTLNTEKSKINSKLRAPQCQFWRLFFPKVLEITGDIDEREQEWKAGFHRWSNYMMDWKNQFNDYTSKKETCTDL
Put plainly: BuChE levels in LA-AD rats. The settings on record: 1 mg/kg IP for 15 days. It counts as in vivo. As to the method: (§2) Fifty male Wistar rats (n = 50) were obtained from a certified animal facility, Shenzhen Bay Laboratory (SZBL) Laboratory Animal Platform, China. The rats were acclimatized to the laboratory environment for one week prior to the experiment. During this period, they were kept in standard polypropylene cages for rodents under controlled conditions, with a room temperature of 22°C, relative humidity of 50%, and a 12-hour light-dark cycle, with lights on from 06:00 to 18:00. The rats had ad libitum access to a standard rodent diet and filtered water to ensure optimal health and hydration. Routine monitoring of housing conditions was conducted to ensure compliance with ethical standards. To establish an AD model, the rats underwent intraperitoneal (IP) administration with lead acetate-induced AD (LA-AD, 50 mg/kg) for 15 days to mimic the neurodegenerative features of AD.
Following AD induction, the rats were randomly divided into five groups: (1) Group I (control): DMSO contained in drinking water at a 5% concentration, without neurotoxic effects, in normal rats; (2) group II (LA-AD): The LA-AD rats for 15 days; […]. […]
(§3) A 12-hour fasting period was imposed on the rats immediately after the final dose of treatment to minimize the effect of recent food intake on blood parameters. […] The toxicological effects of the treatment were assessed through analysis of blood lead concentrations. […]

In test [5] the test system is lead acetate-induced AD (LA-AD) rats. Briefly: Lipid peroxidation (MDA) in brain tissue of LA-AD rats. Conditions: 1 mg/kg IP for 15 days, compared to the LA-AD group. In kind it is in vivo, rat.
Procedure: The rats were acclimatized to the laboratory environment for one week prior to the experiment. During this period, they were kept in standard polypropylene cages for rodents under controlled conditions, with a room temperature of 22°C, relative humidity of 50%, and a 12-hour light-dark cycle, with lights on from 06:00 to 18:00. […] Routine monitoring of housing conditions was conducted to ensure compliance with ethical standards. To establish an AD model, the rats underwent intraperitoneal (IP) administration with lead acetate-induced AD (LA-AD, 50 mg/kg) for 15 days to mimic the neurodegenerative features of AD.
Following 28 days of exposure, the rats were euthanized by cervical decapitation, and their brains were removed to minimize tissue damage. The brains were dissected into specific regions, including the cerebellum and cerebral cortex, for deeper analysis. The cerebellum, cerebral cortex, and hippocampus were isolated in sodium chloride solution and washed with ice-cold solution. The tissues were then homogenized, processed for biochemical analysis, and submerged in ice-cold 0.1 M phosphate buffer. […]
The reaction mixtures were then transferred into centrifuge tubes and centrifuged at 3800 × g for 25 minutes. […] After cooling, the absorbance of the samples was measured at 530 nm using a spectrophotometer (BIOBASE BK-UV1800PC, China).
The target in test [6] is T4, Acetylcholinesterase (AChE) (Rattus norvegicus, UniProt P37136).
T4 construct: The tissues were then homogenized, processed for biochemical analysis; from tissue; host or cells: brain of male Wistar rats (cerebellum, cerebral cortex, hippocampus homogenates)
T4 sequence (P37136 32-614): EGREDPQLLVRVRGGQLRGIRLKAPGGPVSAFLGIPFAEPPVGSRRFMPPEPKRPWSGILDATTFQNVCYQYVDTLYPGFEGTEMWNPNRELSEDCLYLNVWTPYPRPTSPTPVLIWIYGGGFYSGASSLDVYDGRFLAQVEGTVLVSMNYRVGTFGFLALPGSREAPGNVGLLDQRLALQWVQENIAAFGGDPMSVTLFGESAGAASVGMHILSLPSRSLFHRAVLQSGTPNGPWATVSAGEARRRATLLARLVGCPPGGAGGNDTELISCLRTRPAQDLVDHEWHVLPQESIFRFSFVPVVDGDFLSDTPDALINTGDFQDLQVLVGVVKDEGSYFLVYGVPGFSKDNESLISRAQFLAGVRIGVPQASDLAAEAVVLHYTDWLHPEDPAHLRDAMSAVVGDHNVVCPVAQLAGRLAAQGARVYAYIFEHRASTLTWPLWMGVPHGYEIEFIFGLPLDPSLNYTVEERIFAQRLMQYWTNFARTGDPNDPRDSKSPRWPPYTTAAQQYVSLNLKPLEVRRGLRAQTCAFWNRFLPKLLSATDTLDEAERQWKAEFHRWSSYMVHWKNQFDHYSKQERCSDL
Briefly: AChE levels in LA-AD rats. It counts as in vivo. Conditions: 1 mg/kg IP for 15 days. As to the method:
as §2
Following AD induction, the rats were randomly divided into five groups: (1) Group I (control): DMSO contained in drinking water at a 5% concentration, without neurotoxic effects, in normal rats; (2) group II (LA-AD): The LA-AD rats for 15 days; […]. […]. […]
as §3

The mark [7] stands for this setting: BuChE IC50 divided by AChE IC50.
[8] abbreviates: mean ± SD, n = 3, each in triplicate, read-out: IC50 BuChE.

Like-named read-outs stand apart in the source and are kept apart here.

Experimental findings from PMC12296705, “In Vivo and Bioinformatics Evaluation of Nine Traditional Chinese Medicine Compounds Targeting Acetylcholinesterase and Butyrylcholinesterase Enzymes in Alzheimer’s Disease” (Iranian Journal of Pharmaceutical Research : IJPR, 2025) are described below.

The term IC50 denotes the concentration that gives 50% inhibition.

T2 sequence (P06276 29-602): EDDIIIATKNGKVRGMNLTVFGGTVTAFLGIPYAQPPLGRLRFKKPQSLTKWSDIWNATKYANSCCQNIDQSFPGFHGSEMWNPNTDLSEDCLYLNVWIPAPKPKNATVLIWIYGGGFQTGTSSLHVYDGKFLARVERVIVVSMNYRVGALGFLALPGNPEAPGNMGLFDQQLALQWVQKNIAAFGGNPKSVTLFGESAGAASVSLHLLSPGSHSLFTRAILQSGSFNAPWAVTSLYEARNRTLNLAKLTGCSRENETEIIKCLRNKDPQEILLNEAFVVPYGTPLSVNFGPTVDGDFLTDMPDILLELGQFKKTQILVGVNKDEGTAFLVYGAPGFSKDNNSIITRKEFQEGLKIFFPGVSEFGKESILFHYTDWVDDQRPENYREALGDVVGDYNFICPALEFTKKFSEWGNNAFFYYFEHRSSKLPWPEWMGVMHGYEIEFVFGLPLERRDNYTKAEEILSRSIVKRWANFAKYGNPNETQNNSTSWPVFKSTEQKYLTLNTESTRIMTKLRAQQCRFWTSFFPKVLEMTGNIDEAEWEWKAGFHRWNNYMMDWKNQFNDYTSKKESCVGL
T1 sequence (P22303 32-614): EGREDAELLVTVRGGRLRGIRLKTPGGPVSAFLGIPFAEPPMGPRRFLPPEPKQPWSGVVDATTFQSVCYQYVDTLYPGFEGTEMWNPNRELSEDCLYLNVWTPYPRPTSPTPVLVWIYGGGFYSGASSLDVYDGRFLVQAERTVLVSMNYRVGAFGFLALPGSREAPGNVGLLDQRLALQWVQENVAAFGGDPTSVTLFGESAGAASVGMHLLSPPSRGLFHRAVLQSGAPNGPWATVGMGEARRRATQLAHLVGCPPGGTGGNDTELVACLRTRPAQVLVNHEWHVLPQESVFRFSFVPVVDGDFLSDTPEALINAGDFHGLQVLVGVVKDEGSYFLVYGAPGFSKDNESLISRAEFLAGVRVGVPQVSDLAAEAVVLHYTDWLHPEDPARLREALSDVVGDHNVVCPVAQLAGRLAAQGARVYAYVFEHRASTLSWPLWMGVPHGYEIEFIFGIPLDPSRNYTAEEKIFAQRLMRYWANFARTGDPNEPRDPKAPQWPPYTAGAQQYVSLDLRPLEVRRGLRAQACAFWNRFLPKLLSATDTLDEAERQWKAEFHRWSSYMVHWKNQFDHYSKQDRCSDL

Turning to `CC1(C)C=Cc2c(cc3occ(-c4ccc(O)cc4)c(=O)c3c2O)O1` [Alpinumisoflavone], the “BuChE/AChE Selectivity” value in test [1] (setting [7]) amounted to 0.32. In addition, the IC50 in test [1] came out at 90.3 ± 4.13 nM; in test [2] (setting [8]), 29.2 ± 1.4 nM.

As for `C=C1CCC[C@]2(C)C[C@]3(O)OC(=O)C(C)=C3C[C@@H]12` [Atractylenolide III], in test [1], the “BuChE/AChE Selectivity” value is on record as 0.38 and the IC50 was found to be 83.1 ± 2.43 nM. In addition, in test [2], the IC50 was determined as 31.3 ± 2.62 nM.

As for `Cc1cc(=O)cc2c3c1CC1C4OC(=O)C(CC2)(C(C)C4O)C31` (stereo not shown) [Hainanolidol], the “Glutathione (GSH) levels” value in test [3] was “significantly increased”. The BuChE activity result in test [4] was “significantly decreased”. The IC50 turned out to be 44.3 nM in test [1] and 12.3 nM in test [2] (setting [8]). The “Malondialdehyde (MDA) levels” value in test [5] is “significantly reduced”. In test [6], the AChE activity result was “significantly decreased”.

In the case of `COC(=O)C1=CO[C@@H](O[C@@H]2O[C@H](CO)[C@@H](O)[C@H](O)[C@H]2O)[C@@H]2[C@H](C)O[C@@H](O)C[C@H]12` [Morroniside], the IC50 in test [1] worked out at 41.6 ± 2.02 nM; in test [2] (setting [8]), 18.2 ± 2.12 nM.

Regarding `COc1cc2c3c(c1O)-c1c(ccc(OC)c1OC)C[C@@H]3NCC2` [Norcorydine], the IC50 in test [1] worked out at 87.2 ± 4.12 nM; in test [2], 102 ± 3.13 nM.

Regarding `O=c1cc(-c2ccccc2)oc2c(O)c(O)cc(O)c12` [Norwogonin], the “Glutathione (GSH) levels” value in test [3] is given as “significantly increased”. The BuChE activity entry in test [4] was “significantly decreased”. Moreover, the IC50 is 33.6 nM in test [1] and 15.2 nM in test [2] (setting [8]). Also, in test [5], the “Malondialdehyde (MDA) levels” value is recorded as “significantly reduced”. For the same compound, the AChE activity entry in test [6] is on record as “significantly decreased”.

Turning to `COc1cc2c(c(OC)c1OC)-c1c(cc3c(c1OC)OCO3)CC(C)C(C)C2` (stereo not shown) [Schisandrin B], the IC50 turned out to be 90.4 ± 4.41 nM in test [1] and 82.3 ± 1.21 nM in test [2].

As for Asiaticoside, the “BuChE/AChE Selectivity” value in test [1] (setting [7]) was found to be 1.17.
